Reference: patent US6593357B1, “Pyrazole compositions useful as inhibitors of ERK” (Vertex Pharmaceuticals Incorporated, priority 2000, dated 2003)

Target: ERK2 (Homo sapiens, UniProt P28482)
Test: ERK2 inhibition, spectrophotometric coupled-enzyme assay
Type: biochemical
Details: activated ERK2 10 nM, 65 μM ATP, 30° C., pH 7.5; read-out: ERK2 Inhibitory Activity (Ki class)

ERK2, sequence (P28482 whole entry): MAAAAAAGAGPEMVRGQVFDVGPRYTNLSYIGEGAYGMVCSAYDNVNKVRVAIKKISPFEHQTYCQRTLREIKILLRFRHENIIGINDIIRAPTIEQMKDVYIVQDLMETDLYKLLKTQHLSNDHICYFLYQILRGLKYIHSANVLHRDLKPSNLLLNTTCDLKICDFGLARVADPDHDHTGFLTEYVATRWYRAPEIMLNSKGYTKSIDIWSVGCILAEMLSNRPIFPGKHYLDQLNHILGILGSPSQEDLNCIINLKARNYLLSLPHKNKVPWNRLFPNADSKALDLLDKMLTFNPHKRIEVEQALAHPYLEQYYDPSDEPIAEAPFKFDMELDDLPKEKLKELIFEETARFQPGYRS

SMILES | Ki [nM]
CCOC(=O)c1cc(-c2[nH]ncc2-c2ccccc2)c[nH]1 [II-2] | > 5000
NNC(=O)c1cc(-c2[nH]ncc2-c2cccc([N+](=O)[O-])c2)c[nH]1 [II-3] | < 1000
O=C(c1cc(-c2[nH]ncc2-c2ccccc2)c[nH]1)N1CCCC1 [II-4] | < 1000
O=C(NCc1ccccc1)c1cc(-c2n[nH]cc2-c2ccccc2)c[nH]1 [II-5, 4-(4-phenyl-1H-pyrazole-3-yl)-1H-pyrrole-2-carboxylic acid benzylamide] | < 1000
CCOC(=O)c1cc(-c2[nH]ncc2-c2cccc([N+](=O)[O-])c2)c[nH]1 [II-6] | < 1000
CCOC(=O)c1cc(-c2[nH]ncc2-c2ccc(Cl)cc2)c[nH]1 [II-7] | > 5000
CCOC(=O)c1cc(-c2[nH]ncc2-c2ccc(OC)cc2)c[nH]1 [II-8] | > 5000
CCOC(=O)c1cc(-c2[nH]ncc2-c2cccc(N)c2)c[nH]1 [II-9] | > 5000
CCOC(=O)c1cc(-c2[nH]ncc2-c2cccc(OC)c2)c[nH]1 [II-10] | > 5000
CCOC(=O)c1cc(-c2[nH]ncc2-c2ccc(F)cc2)c[nH]1 [II-11] | > 5000
CCOC(=O)c1cc(-c2[nH]ncc2-c2cccc(Cl)c2)c[nH]1 [II-13] | < 1000
O=C(NCc1cccnc1)c1cc(-c2[nH]ncc2-c2ccccc2)c[nH]1 [II-18] | < 1000
O=C(c1cc(-c2[nH]ncc2-c2ccccc2)c[nH]1)N1CCOCC1 [II-19] | < 1000
CC(C)NC(=O)c1cc(-c2[nH]ncc2-c2ccccc2)c[nH]1 [II-20] | < 1000
CN1CCN(C(=O)c2cc(-c3[nH]ncc3-c3ccccc3)c[nH]2)CC1 [II-21] | > 5000
O=C(NCc1ccco1)c1cc(-c2[nH]ncc2-c2ccccc2)c[nH]1 [II-22] | < 1000
COc1cccc(-c2cn[nH]c2-c2c[nH]c(C(=O)N(C)C)c2)c1 [II-23] | < 1000
COc1cccc(-c2cn[nH]c2-c2c[nH]c(C(=O)N3CCCC3)c2)c1 [II-24] | < 1000
COc1cccc(-c2cn[nH]c2-c2c[nH]c(C(=O)NCCN(C)C)c2)c1 [II-25] | > 5000
COc1cccc(-c2cn[nH]c2-c2c[nH]c(C(=O)NCc3cccnc3)c2)c1 [II-26] | < 1000
COc1cccc(-c2cn[nH]c2-c2c[nH]c(C(=O)N3CCOCC3)c2)c1 [II-27] | < 1000

SMILES | Ki [nM]
COc1cccc(-c2cn[nH]c2-c2c[nH]c(C(=O)N3CCN(C)CC3)c2)c1 [II-29] | > 5000
COc1cccc(-c2cn[nH]c2-c2c[nH]c(C(=O)NCc3ccco3)c2)c1 [II-30] | < 1000
O=C(N[C@@H](CO)c1ccccc1)c1cc(-c2[nH]ncc2-c2cc(Cl)cc(Cl)c2)c[nH]1 [II-39] | < 1000
O=C(Nc1ccc(F)c(F)c1)c1cc(-c2[nH]ncc2-c2cccc(Br)c2)c[nH]1 [II-40] | < 1000
O=C(NC(CO)c1ccccc1)c1cc(-c2[nH]ncc2-c2cc(I)c(O)c([N+](=O)[O-])c2)c[nH]1 (stereo not drawn) [II-42] | < 1000
Nc1cc(-c2cn[nH]c2-c2c[nH]c(C(=O)NC(CO)c3ccccc3)c2)cc(I)c1O (stereo not drawn) [II-44] | < 1000
COc1cccc(CNC(=O)c2cc(-c3[nH]ncc3-c3cccc(Br)c3)c[nH]2)c1 [II-46] | < 1000
O=C(NCc1cccc(C(F)(F)F)c1)c1cc(-c2[nH]ncc2-c2cccc(Br)c2)c[nH]1 [II-47] | < 1000
O=C(NC(CO)c1ccccc1)c1cc(-c2[nH]ncc2-c2cccc(C(F)(F)F)c2)c[nH]1 (stereo not drawn) [II-49] | < 1000
O=C(NCc1ccccc1)c1cc(-c2[nH]ncc2-c2cc(I)c(O)c([N+](=O)[O-])c2)c[nH]1 [II-52] | < 1000
CS(=O)(=O)c1ccc(CNC(=O)c2cc(-c3[nH]ncc3-c3cccc(Br)c3)c[nH]2)cc1 [II-55] | < 1000
O=C(NNc1cccc(C(F)(F)F)c1)c1cc(-c2[nH]ncc2-c2cccc(Br)c2)c[nH]1 [II-56] | < 1000
Cc1ccc(CNC(=O)c2cc(-c3[nH]ncc3-c3cccc(Br)c3)c[nH]2)o1 [II-58] | < 1000
O=C(NC(CCO)c1ccccc1)c1cc(-c2[nH]ncc2-c2cccc(Br)c2)c[nH]1 (stereo not drawn) [II-59] | < 1000
Cc1ccccc1CNC(=O)c1cc(-c2[nH]ncc2-c2cccc(Br)c2)c[nH]1 [II-60] | < 1000
CCC(NC(=O)c1cc(-c2[nH]ncc2-c2cccc(Br)c2)c[nH]1)c1ccccc1 (stereo not drawn) [II-62] | < 1000
O=C(NCc1ccccc1)c1cc(-c2[nH]ncc2-c2cccc(F)c2)c[nH]1 [II-63] | < 1000
O=C(NC[C@@H]1CCCC[C@@H]1O)c1cc(-c2[nH]ncc2-c2cccc(Br)c2)c[nH]1 [II-65] | < 1000
COc1cc(CNC(=O)c2cc(-c3[nH]ncc3-c3cccc(Br)c3)c[nH]2)cc(OC)c1 [II-68] | < 1000
COc1ccccc1CNC(=O)c1cc(-c2[nH]ncc2-c2cccc(Br)c2)c[nH]1 [II-69] | < 1000
Nc1cccc(-c2cn[nH]c2-c2c[nH]c(C(=O)NCc3ccccc3)c2)c1 [II-73] | < 1000

SMILES | Ki [nM]
O=C(NCc1cccnc1)c1cc(-c2[nH]ncc2-c2ccc(Cl)c(Cl)c2)c[nH]1 [II-74] | < 1000
Cc1cccc(-c2cn[nH]c2-c2c[nH]c(C(=O)NC(CO)c3ccccc3)c2)c1 (stereo not drawn) [II-75] | < 1000
O=C(NCC1CCCO1)c1cc(-c2[nH]ncc2-c2cc(Cl)cc(Cl)c2)c[nH]1 (stereo not drawn) [II-78] | < 1000
O=C(NCc1ccccc1)c1cc(-c2[nH]ncc2-c2cccc([N+](=O)[O-])c2)c[nH]1 [II-79] | < 1000
CN(Cc1ccccc1)C(=O)c1cc(-c2[nH]ncc2-c2cccc(Br)c2)c[nH]1 [II-83] | < 1000
O=C(NC(CCO)c1ccccc1)c1cc(-c2[nH]ncc2-c2cccc(Br)c2)c[nH]1 (stereo not drawn) [II-86] | < 1000
O=C(c1cc(-c2[nH]ncc2-c2cccc(Br)c2)c[nH]1)N1CCc2ccccc2C1 [II-87] | < 1000
Cc1cccc(-c2cn[nH]c2-c2c[nH]c(C(=O)NCc3ccccc3)c2)c1 [II-90] | < 1000
O=C(N[C@@H](CO)Cc1ccccc1)c1cc(-c2[nH]ncc2-c2cccc(Br)c2)c[nH]1 [II-91] | < 1000
O=C(NCc1ccccc1)c1cc(-c2[nH]ncc2-c2ccc(Cl)cc2)c[nH]1 [II-92] | < 1000
O=C(NCc1ccccc1)c1cc(-c2[nH]ncc2-c2cccc(O)c2)c[nH]1 [II-95] | < 1000
Cc1cccc(-c2cn[nH]c2-c2c[nH]c(C(=O)NCc3ccncc3)c2)c1 [II-96] | < 1000
O=C(NCC1CCCO1)c1cc(-c2[nH]ncc2-c2ccc(F)c(Cl)c2)c[nH]1 (stereo not drawn) [II-100] | < 1000
O=C(c1cc(-c2[nH]ncc2-c2cccc(Br)c2)c[nH]1)N1CCC(O)(c2ccccc2)CC1 [II-102] | < 1000
COc1cc2c(cc1OC)C(CO)N(C(=O)c1cc(-c3[nH]ncc3-c3cccc(Br)c3)c[nH]1)CC2 (stereo not drawn) [II-105] | < 1000
O=C(c1cc(-c2[nH]ncc2-c2ccc(F)c(Cl)c2)c[nH]1)N1CCOCC1 [II-107] | < 1000
Nc1ccc(CNC(=O)c2cc(-c3[nH]ncc3-c3cccc(Br)c3)c[nH]2)cc1 [II-109] | < 1000
O=C(NCc1ccc(-c2cnns2)cc1)c1cc(-c2[nH]ncc2-c2cccc(Br)c2)c[nH]1 [II-110] | < 1000
O=C(NCc1ccccc1)c1cc(-c2[nH]ncc2-c2ccc(F)cc2)c[nH]1 [II-111] | < 1000
O=C(NCc1cccnc1)c1cc(-c2[nH]ncc2-c2ccc(F)c(F)c2)c[nH]1 [II-116] | 1000 to 5000
COc1ccc(-c2cn[nH]c2-c2c[nH]c(C(=O)NCc3ccccc3)c2)cc1 [II-117] | 1000 to 5000
